Activity calls are given as the source filed them. No cut-off for these calls is given here. Non-standard residues stand in square brackets, D forms with d. Residues, ends and D or L forms follow the SMILES beside them. ξ: configuration not given here. Cha = N[C@@H](CC1CCCCC1)C(=O)O; ξNle = CCCCC(N)C(=O)O
Assays:
[1] = target: Glucagon receptor (Homo sapiens) (UniProt P47871); test: Agonist activity at human GCGR expressed in HEK293 cells after 5 hrs by luciferase reporter gene assay; type: cell-based
Glucagon receptor (Homo sapiens), sequence (P47871 whole entry): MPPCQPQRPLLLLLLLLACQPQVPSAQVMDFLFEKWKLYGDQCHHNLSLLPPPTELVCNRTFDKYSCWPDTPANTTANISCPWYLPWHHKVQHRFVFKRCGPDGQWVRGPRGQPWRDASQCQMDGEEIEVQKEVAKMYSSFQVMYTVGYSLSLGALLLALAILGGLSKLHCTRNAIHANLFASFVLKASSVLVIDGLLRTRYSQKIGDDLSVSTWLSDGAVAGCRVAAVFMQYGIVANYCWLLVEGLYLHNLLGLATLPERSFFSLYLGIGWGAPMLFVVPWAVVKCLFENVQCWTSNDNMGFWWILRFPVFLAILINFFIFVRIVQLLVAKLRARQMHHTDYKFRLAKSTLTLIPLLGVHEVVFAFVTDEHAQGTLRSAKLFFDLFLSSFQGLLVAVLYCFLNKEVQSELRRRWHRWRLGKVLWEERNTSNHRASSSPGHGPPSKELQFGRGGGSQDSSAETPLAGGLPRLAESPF

[2] = system: HEK293; test: Selectivity ratio of EC50 for human GLP1R expressed in HEK293 cells to EC50 for human GLP2R expressed in HEK293; type: cell-based
[3] = target: T1, Glucagon-like peptide 1 receptor (Homo sapiens, UniProt P43220); test: Agonist activity at human GLP1R expressed in HEK293 cells at 30 nM after 5 hrs by luciferase reporter gene assay; type: cell-based
T1 sequence (P43220 whole entry): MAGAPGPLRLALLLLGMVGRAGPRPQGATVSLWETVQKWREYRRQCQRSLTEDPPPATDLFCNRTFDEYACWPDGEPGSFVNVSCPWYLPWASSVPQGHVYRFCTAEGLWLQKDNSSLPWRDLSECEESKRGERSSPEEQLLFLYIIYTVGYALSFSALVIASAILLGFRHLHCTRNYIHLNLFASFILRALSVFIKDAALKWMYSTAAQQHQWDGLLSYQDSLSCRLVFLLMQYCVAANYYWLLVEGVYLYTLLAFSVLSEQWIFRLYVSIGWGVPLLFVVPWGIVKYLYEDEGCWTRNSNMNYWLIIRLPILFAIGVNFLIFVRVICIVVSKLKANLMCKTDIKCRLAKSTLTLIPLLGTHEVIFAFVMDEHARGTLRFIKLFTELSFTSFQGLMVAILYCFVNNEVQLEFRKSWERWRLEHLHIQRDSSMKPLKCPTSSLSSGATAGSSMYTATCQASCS

[4] = Systemic clearance in Sprague-Dawley rat at 0.2 mg/kg, iv through cassette dosing measured up to 300 mins by LC/MS/MS analysis; type: ADME, organism-based; conditions: in vivo
[5] = target: T1, Glucagon-like peptide 1 receptor; test: Agonist activity at human GLP1R expressed in HEK293 cells after 5 hrs by luciferase reporter gene assay; type: cell-based
[6] = target: T2, Glucagon-like peptide 2 receptor (Homo sapiens, UniProt O95838); test: Agonist activity at human GLP2R expressed in HEK293 cells after 5 hrs by luciferase reporter gene assay; type: cell-based
T2 sequence (O95838 whole entry): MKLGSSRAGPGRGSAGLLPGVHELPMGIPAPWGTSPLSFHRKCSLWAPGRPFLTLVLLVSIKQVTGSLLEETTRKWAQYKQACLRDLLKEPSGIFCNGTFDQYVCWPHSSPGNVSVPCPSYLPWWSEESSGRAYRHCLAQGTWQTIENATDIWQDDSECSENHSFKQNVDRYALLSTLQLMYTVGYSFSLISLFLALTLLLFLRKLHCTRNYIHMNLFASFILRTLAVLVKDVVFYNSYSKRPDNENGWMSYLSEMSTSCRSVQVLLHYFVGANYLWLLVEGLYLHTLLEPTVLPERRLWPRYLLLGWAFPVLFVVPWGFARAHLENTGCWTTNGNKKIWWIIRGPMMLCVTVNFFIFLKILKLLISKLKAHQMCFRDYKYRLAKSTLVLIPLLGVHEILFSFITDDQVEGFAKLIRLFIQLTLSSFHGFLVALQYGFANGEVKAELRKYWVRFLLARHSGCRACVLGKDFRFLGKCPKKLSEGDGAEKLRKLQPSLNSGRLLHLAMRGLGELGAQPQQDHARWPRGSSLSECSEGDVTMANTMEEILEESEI

Row | Activity [1] | Efficacy [3] [%] | clearance [4] [mL/min/kg] | EC50 [5] [nM] | EC50 [6] [nM] | Compound | Ratio EC50 [2]
1 | inactive | 86 | – | – | – | CCCCC(NC(=O)[C@H](CCC(=O)O)NC(=O)[C@H](CC(=O)O)NC(=O)[C@H](CO)NC(=O)[C@H](Cc1ccccc1)NC(=O)[C@H](CO)NC(=O)CNC(=O)[C@H](CC(=O)O)NC(=O)CNC(=O)[C@@H](N)Cc1cnc[nH]1)C(=O)N[C@H](Cc1ccc(Cl)cc1)C(=O)N[C@H](C(=O)N[C@H](C(=O)N[C@@H](CC(C)C)C(=O)N[C@@H](CC(=O)O)C(=O)N[C@@H](CC(N)=O)C(=O)N[C@@H](CC(C)C)C(=O)N[C@@H](C)C(=O)N[C@@H](C)C(=O)N[C@@H](CCCNC(=N)N)C(=O)N[C@@H](CC(=O)O)C(=O)N[C@@H](Cc1ccccc1)C(=O)N[C@H](C(=O)N[C@@H](CC(N)=O)C(=O)N[C@@H](Cc1c[nH]c2ccccc12)C(=O)N[C@@H](CC(C)C)C(=O)N[C@H](C(=O)N[C@@H](CCC(N)=O)C(=O)N[C@H](C(=O)N[C@@H](CCCCN)C(N)=O)[C@@H](C)O)[C@@H](C)CC)[C@@H](C)CC)[C@@H](C)CC)[C@@H](C)O (stereo partly specified) | 660
2 | inactive | 83 | 0.69 | 8.9 | 0.51 | CCCCC(NC(=O)[C@H](CCC(=O)O)NC(=O)[C@H](CC(=O)O)NC(=O)[C@H](CO)NC(=O)[C@H](Cc1ccccc1)NC(=O)[C@H](CO)NC(=O)CNC(=O)[C@H](CC(=O)O)NC(=O)CNC(=O)[C@@H](N)Cc1cnc[nH]1)C(=O)N[C@@H](CC1CCCCC1)C(=O)N[C@H](C(=O)N[C@H](C(=O)N[C@@H](CC(C)C)C(=O)N[C@@H](CC(=O)O)C(=O)N[C@@H](CC(N)=O)C(=O)N[C@@H](CC(C)C)C(=O)N[C@@H](C)C(=O)N[C@@H](C)C(=O)N[C@@H](CCCNC(=N)N)C(=O)N[C@@H](CC(=O)O)C(=O)N[C@@H](Cc1ccccc1)C(=O)N[C@H](C(=O)N[C@@H](CC(N)=O)C(=O)N[C@@H](Cc1c[nH]c2ccccc12)C(=O)N[C@@H](CC(C)C)C(=O)N[C@H](C(=O)N[C@@H](CCC(N)=O)C(=O)N[C@H](C(=O)N[C@@H](CCCCN)C(N)=O)[C@@H](C)O)[C@@H](C)CC)[C@@H](C)CC)[C@@H](C)CC)[C@@H](C)O (stereo partly specified) (H-HGDGSFSDE[ξNle][Cha]TILDNLAARDFINWLIQTK-NH2) | 17
3 | inactive | 108 | – | 39 | 1.9 | CCCCC(NC(=O)[C@H](CCC(=O)O)NC(=O)[C@H](CC(=O)O)NC(=O)[C@H](CO)NC(=O)[C@H](Cc1ccccc1)NC(=O)[C@H](CO)NC(=O)CNC(=O)[C@H](CC(=O)O)NC(=O)CNC(=O)[C@@H](N)Cc1cnc[nH]1)C(=O)N[C@H](Cc1ccc(-c2ccccc2)cc1)C(=O)N[C@H](C(=O)N[C@H](C(=O)N[C@@H](CC(C)C)C(=O)N[C@@H](CC(=O)O)C(=O)N[C@@H](CC(N)=O)C(=O)N[C@@H](CC(C)C)C(=O)N[C@@H](C)C(=O)N[C@@H](C)C(=O)N[C@@H](CCCNC(=N)N)C(=O)N[C@@H](CC(=O)O)C(=O)N[C@@H](Cc1ccccc1)C(=O)N[C@H](C(=O)N[C@@H](CC(N)=O)C(=O)N[C@@H](Cc1c[nH]c2ccccc12)C(=O)N[C@@H](CC(C)C)C(=O)N[C@H](C(=O)N[C@@H](CCC(N)=O)C(=O)N[C@H](C(=O)N[C@@H](CCCCN)C(N)=O)[C@@H](C)O)[C@@H](C)CC)[C@@H](C)CC)[C@@H](C)CC)[C@@H](C)O (stereo partly specified) | 20
4 | inactive | 87 | – | 10 | 0.29 | CCCCC(NC(=O)[C@H](CCC(=O)O)NC(=O)[C@H](CC(=O)O)NC(=O)[C@H](CO)NC(=O)[C@H](Cc1ccccc1)NC(=O)[C@@H](CO)NC(=O)CNC(=O)[C@@H](CC(=O)O)NC(=O)CNC(=O)[C@@H](N)Cc1cnc[nH]1)C(=O)NC(CCC(C)C)C(=O)N[C@H](C(=O)N[C@H](C(=O)N[C@@H](CC(C)C)C(=O)N[C@@H](CC(=O)O)C(=O)N[C@@H](CC(N)=O)C(=O)N[C@@H](CC(C)C)C(=O)N[C@@H](C)C(=O)N[C@@H](C)C(=O)N[C@@H](CCCNC(=N)N)C(=O)N[C@@H](CC(=O)O)C(=O)N[C@H](Cc1ccccc1)C(=O)N[C@@H](C(=O)N[C@H](CC(N)=O)C(=O)N[C@@H](Cc1c[nH]c2ccccc12)C(=O)N[C@H](CC(C)C)C(=O)N[C@@H](C(=O)N[C@H](CCC(N)=O)C(=O)N[C@@H](C(=O)N[C@@H](CCCCN)C(N)=O)[C@H](C)O)[C@H](C)CC)[C@H](C)CC)[C@H](C)CC)[C@@H](C)O (stereo partly specified) | 34
5 | inactive | 44 | – | 180 | 0.15 | CCCCC(NC(=O)[C@H](CCC(=O)O)NC(=O)[C@H](CC(=O)O)NC(=O)[C@H](CO)NC(=O)[C@H](Cc1ccccc1)NC(=O)[C@H](CO)NC(=O)CNC(=O)[C@H](CC(=O)O)NC(=O)CNC(=O)[C@@H](N)Cc1cnc[nH]1)C(=O)N[C@@H](CC(C)C)C(=O)N[C@H](C(=O)N[C@H](C(=O)N[C@@H](CC(C)C)C(=O)N[C@@H](CC(=O)O)C(=O)N[C@@H](CC(N)=O)C(=O)N[C@@H](CC(C)C)C(=O)N[C@@H](C)C(=O)N[C@@H](C)C(=O)N[C@@H](CCCNC(=N)N)C(=O)N[C@@H](CC(=O)O)C(=O)N[C@@H](Cc1ccccc1)C(=O)N[C@H](C(=O)N[C@@H](CC(N)=O)C(=O)N[C@@H](Cc1c[nH]c2ccccc12)C(=O)N[C@@H](CC(C)C)C(=O)N[C@H](C(=O)N[C@@H](CCC(N)=O)C(=O)N[C@H](C(=O)N[C@@H](CCCCN)C(N)=O)[C@@H](C)O)[C@@H](C)CC)[C@@H](C)CC)[C@@H](C)CC)[C@@H](C)O (stereo partly specified) | –
6 | inactive | 83 | – | 21 | 0.18 | CCCCC(NC(=O)[C@@H](CCC(=O)O)NC(=O)[C@@H](CC(=O)O)NC(=O)[C@@H](CO)NC(=O)[C@@H](Cc1ccccc1)NC(=O)[C@@H](CO)NC(=O)CNC(=O)[C@@H](CC(=O)O)NC(=O)CNC(=O)[C@@H](N)Cc1cnc[nH]1)C(=O)NC(Cc1ccc(-c2ccccc2)cc1)C(=O)N[C@@H](C(=O)N[C@@H](C(=O)N[C@H](CC(C)C)C(=O)N[C@H](CC(=O)O)C(=O)N[C@H](CC(N)=O)C(=O)N[C@H](CC(C)C)C(=O)N[C@H](C)C(=O)N[C@H](C)C(=O)N[C@H](CCCNC(=N)N)C(=O)N[C@H](CC(=O)O)C(=O)N[C@H](Cc1ccccc1)C(=O)N[C@@H](C(=O)N[C@H](CC(N)=O)C(=O)N[C@@H](Cc1c[nH]c2ccccc12)C(=O)N[C@@H](CC(C)C)C(=O)N[C@H](C(=O)N[C@@H](CCC(N)=O)C(=O)N[C@H](C(=O)N[C@H](CCCCN)C(N)=O)[C@@H](C)O)[C@H](C)CC)[C@@H](C)CC)[C@H](C)CC)[C@H](C)O (stereo partly specified) | 110
7 | inactive | 35 | – | 300 | 0.44 | CCCCC(NC(=O)[C@H](CCC(=O)O)NC(=O)[C@H](CC(=O)O)NC(=O)[C@H](CO)NC(=O)[C@H](Cc1ccccc1)NC(=O)[C@H](CO)NC(=O)CNC(=O)[C@H](CC(=O)O)NC(=O)CNC(=O)[C@@H](N)Cc1cnc[nH]1)C(=O)N[C@@H](Cc1cnc[nH]1)C(=O)N[C@H](C(=O)N[C@H](C(=O)N[C@@H](CC(C)C)C(=O)N[C@@H](CC(=O)O)C(=O)N[C@@H](CC(N)=O)C(=O)N[C@@H](CC(C)C)C(=O)N[C@@H](C)C(=O)N[C@@H](C)C(=O)N[C@@H](CCCNC(=N)N)C(=O)N[C@@H](CC(=O)O)C(=O)N[C@@H](Cc1ccccc1)C(=O)N[C@H](C(=O)N[C@@H](CC(N)=O)C(=O)N[C@@H](Cc1c[nH]c2ccccc12)C(=O)N[C@@H](CC(C)C)C(=O)N[C@H](C(=O)N[C@@H](CCC(N)=O)C(=O)N[C@H](C(=O)N[C@@H](CCCCN)C(N)=O)[C@@H](C)O)[C@@H](C)CC)[C@@H](C)CC)[C@@H](C)CC)[C@@H](C)O (stereo partly specified) | 680
8 | inactive | 64 | – | – | – | CCCCC(NC(=O)[C@H](CCC(=O)O)NC(=O)[C@H](CC(=O)O)NC(=O)[C@H](CO)NC(=O)[C@H](Cc1ccccc1)NC(=O)[C@H](CO)NC(=O)CNC(=O)[C@H](CC(=O)O)NC(=O)CNC(=O)[C@@H](N)Cc1cnc[nH]1)C(=O)N[C@H](Cc1ccccc1)C(=O)N[C@H](C(=O)N[C@H](C(=O)N[C@@H](CC(C)C)C(=O)N[C@@H](CC(=O)O)C(=O)N[C@@H](CC(N)=O)C(=O)N[C@@H](CC(C)C)C(=O)N[C@@H](C)C(=O)N[C@@H](C)C(=O)N[C@@H](CCCNC(=N)N)C(=O)N[C@@H](CC(=O)O)C(=O)N[C@@H](Cc1ccccc1)C(=O)N[C@H](C(=O)N[C@@H](CC(N)=O)C(=O)N[C@@H](Cc1c[nH]c2ccccc12)C(=O)N[C@@H](CC(C)C)C(=O)N[C@H](C(=O)N[C@@H](CCC(N)=O)C(=O)N[C@H](C(=O)N[C@@H](CCCCN)C(N)=O)[C@@H](C)O)[C@@H](C)CC)[C@@H](C)CC)[C@@H](C)CC)[C@@H](C)O (stereo partly specified) | 1300
